{"source": "patent US6872803B1", "about": "“Peptides” (Kyowa Hakko Kogyo Co., Ltd., priority 1993, dated 2005)", "key": {"[1]": {"conditions": "snake venom peptides, literature; cited from earlier work"}, "[2]": {"tested_on": "T1, α-chymotrypsin", "T1 construct": "purchased Sigma Co", "test": "Stability to α-chymotrypsin", "type": "in vitro ADME", "conditions": "α-chymotrypsin (Sigma Co.); after 6 hours; α-chymotrypsin 1/10 weight, pH 7.2, 37° C.; read-out: residual amount remaining", "procedure": "(§1) To this were added α-chymotrypsin (Sigma Co.) and N^α-p-tosyl-L-lysine chloromethyl ketone (Sigma Co.) each in an amount of 1/10 weight of compound (2) or (c). […] Absorbance at 220 nm of the eluate was measured."}, "[3]": {"target": "T2, BK receptor derived from guinea pig ilea (Cavia porcellus, UniProt O70526)", "T2 construct": "from tissue; host or cells: guinea pig ileum membrane fraction", "T2 sequence (O70526 1-372)": "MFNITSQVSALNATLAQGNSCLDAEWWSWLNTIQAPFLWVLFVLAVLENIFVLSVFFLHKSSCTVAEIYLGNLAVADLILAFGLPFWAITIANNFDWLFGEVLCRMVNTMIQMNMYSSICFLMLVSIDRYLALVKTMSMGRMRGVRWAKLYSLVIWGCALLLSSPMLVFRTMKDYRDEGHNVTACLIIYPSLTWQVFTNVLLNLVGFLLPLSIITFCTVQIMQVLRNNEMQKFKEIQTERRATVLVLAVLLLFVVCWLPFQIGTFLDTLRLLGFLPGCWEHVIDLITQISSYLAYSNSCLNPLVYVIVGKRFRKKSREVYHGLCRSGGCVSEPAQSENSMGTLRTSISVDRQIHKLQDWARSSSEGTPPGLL", "test": "BK-receptor binding inhibiting activity", "conditions": "3H-BK 200 pM", "procedure": "Inhibition of the binding of BK to the BK receptor derived from guinea pig ilea\nUsing a polytron (Type PT10/35, Kinematica Gmbh), guinea pig ilea was homogenized in buffer (A) (containing 25 mM N-tris(hydroxymethyl)methyl-2-aminoethane-sulfonic acid-NaOH, pH 6.8) at 4° C.\nThe suspension thus obtained was centrifuged at 4° C. for 10 minutes at 8,000×g, and the supernatant was collected. The supernatant was further centrifuged at 4° C. for 60 minutes at 40,000×g, and the solid was collected. The solid was suspended in buffer (A), and the resulting suspension was centrifuged at 4° C. for 60 minutes at 40,000×g. The resulting solid was suspended to give a protein content of 2 mg/ml to serve as a membrane fraction. […]\n^3H-BK (200 pM) was added to each of the membrane fraction solutions, to which non-labeled BK (final concentration: 1 μM) had been added, a test compound had been added or none of these had been added. […] The filter was washed with buffer (C) (comprising 50 mM Tris-HCl, 1 mM EDTA, pH 7.6), and the radioactivity of the filter was measured, using a liquid scintillation counter (LSC3500, Aroka Co.) to determine the amount of the ^3H-BK bound to the receptor and non-specifically bound 3H-BK. […]"}, "[4]": {"tested_on": "prolyl-endopeptidase", "test": "in vitro", "conditions": "prolyl-endopeptidase (Seikagaku Corporation), pH 7.2", "quoted_text": "(§2) The resulting mixture was incubated at 37° C. and sampled at intervals. The samples were analyzed by HPLC, using a reversed-phase column (YMC-Pack, ODS-AM, 150×6 mm I.D.). Elution was carried out by linear gradient elution using acetonitrile (0% to 45%) containing 0.1% TFA for 30 minutes. Absorbance at 220 nm of the eluate was measured."}, "[5]": {"target": "prolyl-endopeptidase (Elizabethkingia meningoseptica, UniProt P27028)", "sequence (P27028 21-705)": "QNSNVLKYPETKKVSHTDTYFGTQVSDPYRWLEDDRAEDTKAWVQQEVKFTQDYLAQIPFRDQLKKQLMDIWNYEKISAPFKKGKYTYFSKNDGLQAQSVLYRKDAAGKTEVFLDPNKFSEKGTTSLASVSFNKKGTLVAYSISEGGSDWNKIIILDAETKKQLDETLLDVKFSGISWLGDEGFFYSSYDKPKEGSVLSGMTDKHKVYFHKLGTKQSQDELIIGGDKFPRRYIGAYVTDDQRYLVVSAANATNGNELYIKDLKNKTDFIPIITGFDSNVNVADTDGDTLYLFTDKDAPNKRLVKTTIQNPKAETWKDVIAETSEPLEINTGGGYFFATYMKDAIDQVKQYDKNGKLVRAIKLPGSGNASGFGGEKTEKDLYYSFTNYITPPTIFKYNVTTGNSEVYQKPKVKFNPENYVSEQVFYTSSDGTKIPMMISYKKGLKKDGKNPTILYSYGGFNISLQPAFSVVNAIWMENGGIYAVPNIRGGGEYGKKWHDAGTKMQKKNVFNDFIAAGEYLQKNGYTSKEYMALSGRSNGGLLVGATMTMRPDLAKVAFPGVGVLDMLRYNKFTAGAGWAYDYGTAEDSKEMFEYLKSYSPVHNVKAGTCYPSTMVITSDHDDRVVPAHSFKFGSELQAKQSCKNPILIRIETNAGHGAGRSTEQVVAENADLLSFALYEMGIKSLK", "test": "in vitro", "conditions": "prolyl-endopeptidase in PBS(−) buffer, pH 7.2", "quoted_text": "as §2"}, "[6]": {"tested_on": "trypsin", "test": "in vitro", "conditions": "pH 7.2", "quoted_text": "To this was added trypsin (Sigma Co.) in an amount of 1/20 weight of compound (1) or (b). The resulting solution was incubated at 37° C. and sampled at intervals. The samples were analyzed by HPLC, using a reversed-phase column (YMC-Pack, ODS-AM, 150×6 mm I.D.). Elution was carried out by linear gradient elution using acetonitrile (0% to 45%) containing 0.1% TFA for 30 minutes. Absorbance at 220 nm of the eluates was measured."}, "[7]": {"tested_on": "B16-F10 (mouse melanoma) cells", "test": "Cell-adhesion inhibiting activity (adhesion of biotin-labeled cells to mouse fibronectin-coated plate)", "type": "cell-based", "procedure": "To a 96-well flat bottom plate (Sumitomo Bakelite Co.) added were […] (5 μg/ml-culture) of mouse fibronectin (produced by Telios Pharmaceutical Inc.). The plate was allowed to stand for 2 hours at room temperature to coat with mouse fibronectin. Each solution was added to the plate. Next, biotin-labeled B16-F10 (mouse melanoma) cells were added thereto and incubated at 37° C. for 30 minutes. After incubation, the non-adhered cells were removed by suction, and the adhered cells were fixed by 0.25% glutaraldehyde/PBS. The thus-fixed cells were washed with Tween-PBS, and peroxidase-labeled avidin D (Vector Co.) was added thereto and reacted for one hour at room temperature. Thereafter, the cells were washed with Tween-PBS and colored with an ABTS solution. Using NJ-2001 (Nippon Intermed Co.), the absorbance of the colored cells at OD415 was measured by colorimetry.\nFrom the absorbance thus measured, the percentage inhibition of adhesion of the cells was obtained according to the following equation: Percentage Inhibition of Cell Adhesion=[(A−B)/A]×100 • A: absorbance in the absence of the test compound • B: absorbance in the presence of the test compound […]"}, "[8]": {"tested_on": "platelet-rich plasma (PRP)", "test": "Inhibitory activity against agglutination of platelets stimulated by collagen", "type": "cell-based, white rabbit", "conditions": "collagen 10 μg/ml", "procedure": "The blood was collected from the heart of a white rabbit (male weight 2 kg) and mixed with 3.8% sodium citrate (1:9 3.8% sodium citrate/blood). The mixture was centrifuged at 900 r.p.m., and the supernatant was isolated as platelet-rich plasma (PRP). The remaining lower layer was centrifuged at 2500 r.p.m., and the supernatent was isolated as platelet-poor plasma (PPP). These isolates were used in the following test. The percentage of platelet agglutination was measured, using a platelet agglutination measuring device, TE-500 (produced by Elmer Optical Co.). As the standard for platelet agglutination in this test, the percentage of platelet agglutination measured in PRP only was defined as 0%, while that measured in PPP only as 100%. Test solutions each containing a test compound, compound (1) or compound (b) were prepared so as to give a final concentration of 1, 0.3 or 0.1 mM.\nTen μl of re-distilled water (as a control) or the test solution and 200 μl of PRP were put into a cuvet and pre-incubated for 3 minutes, then 10 μl of a collagen that had been prepared to have a final concentration of 10 μg/ml were added thereto, and the percentage of platelet agglutination was measured."}, "[9]": {"target": "T3, α-chymotrypsin (Bos taurus, UniProt P00766, DEL14-15/DEL147-148)", "T3 construct": "purchased Sigma Co", "test": "Stability to α-chymotrypsin", "type": "in vitro ADME", "conditions": "α-chymotrypsin (Sigma Co.) in PBS(−) buffer; α-chymotrypsin 1/10 weight, PBS(−) pH 7.2, 37° C.", "procedure": "as §1"}}, "note": "Where a SMILES comes first, the peptide text is derived from it. Bridges are numbered along the chain shown (N, C = ends). [ ]: non-standard residue; d: D form. Hyp = O=C(O)[C@@H]1C[C@@H](O)CN1", "data": [{"compound": "trigramin", "values": [{"measurement": "activity, times higher than the activity of Gly-Arg-Gly-Asp-Ser", "setting": "[1]", "value": "~1000", "unit": "times"}]}, {"compound": "CC(C)[C@H](NC(=O)[C@H](C)NC(=O)[C@H](Cc1ccc(O)cc1)NC(=O)[C@@H](NC(=O)[C@H](Cc1c[nH]c2ccccc12)NC(=O)[C@@H]1CC(=O)NCC(=O)N[C@@H](CC(N)=O)C(=O)N[C@@H](Cc2c[nH]c3ccccc23)C(=O)N[C@@H](Cc2c[nH]cn2)C(=O)NCC(=O)N[C@@H]([C@@H](C)O)C(=O)N[C@@H](C)C(=O)N2CCC[C@H]2C(=O)N1)C(C)C)C(=O)N[C@H](C(=O)NCC(=O)N[C@@H](CCCNC(=N)N)C(=O)NCC(=O)N[C@@H](CC(=O)O)C(=O)N[C@@H](CO)C(=O)N1CCC[C@H]1C(=O)N[C@@H](C)C(N)=O)[C@@H](C)O", "note": "[Compound 2] (GNWHGTAPDWVYAVTGRGDSPA-NH2; lactam N-9)", "values": [{"measurement": "remaining at 6 h, 25 μg/ml", "setting": "[2]", "value": "~95", "unit": "%"}]}, {"compound": "H-[dR]RP[Hyp]GFS[dF]LR-OH [Compound m]", "values": [{"measurement": "Percentage inhibition (%)", "setting": "[3]; test compound 10^−7 M", "value": 68, "unit": "%"}, {"measurement": "Percentage inhibition (%)", "setting": "[3]; test compound 10^−8 M", "value": 20, "unit": "%"}]}, {"compound": "H-SMGLPCIFM-OH [Compound f, H-Ser-Met-Gly-Leu-Pro-Cys-Ile-Phe-Met-OH]", "values": [{"measurement": "remaining at 1 h, 25 μg/ml", "setting": "[4]", "value": 12, "unit": "%"}]}, {"compound": "H-SMGLPCVVM-OH [Compound d, H-Ser-Met-Gly-Leu-Pro-Cys-Val-Val-Met-OH]", "values": [{"measurement": "half-life at 25 μg/ml", "setting": "[5]", "value": "< 1", "unit": "h"}]}, {"compound": "CC(C)[C@H](NC(=O)[C@H](Cc1c[nH]c2ccccc12)NC(=O)[C@@H]1CC(=O)NCC(=O)N[C@@H](CC(N)=O)C(=O)N[C@@H](Cc2c[nH]c3ccccc23)C(=O)N[C@@H](Cc2c[nH]cn2)C(=O)NCC(=O)N[C@@H]([C@@H](C)O)C(=O)N[C@@H](C)C(=O)N2CCC[C@H]2C(=O)N1)C(=O)N[C@H](C(=O)NCC(=O)N[C@@H](CCCNC(=N)N)C(=O)NCC(=O)N[C@@H](CC(=O)O)C(=O)N[C@@H](CO)C(=O)N1CCC[C@H]1C(=O)N[C@@H](C)C(=O)O)[C@@H](C)O", "note": "[Compound 1] (GNWHGTAPDWVTGRGDSPA-OH; lactam N-9)", "values": [{"measurement": "remaining at 9 h, 25 μg/ml", "setting": "[6]; trypsin (Sigma Co.)", "value": "~60", "unit": "%"}]}, {"compound": "CC[C@H](C)[C@H](NC(=O)[C@H](CS)NC(=O)[C@@H]1CCCN1C(=O)[C@H](CC(C)C)NC(=O)CNC(=O)[C@H](CCSC)NC(=O)[C@H](CO)NC(=O)[C@H](Cc1c[nH]c2ccccc12)NC(=O)[C@@H]1CC(=O)NCC(=O)N[C@@H](CC(N)=O)C(=O)N[C@@H](Cc2c[nH]c3ccccc23)C(=O)N[C@@H](Cc2c[nH]cn2)C(=O)NCC(=O)N[C@@H]([C@@H](C)O)C(=O)N[C@@H](C)C(=O)N2CCC[C@H]2C(=O)N1)C(=O)N[C@@H](Cc1ccccc1)C(=O)N[C@@H](CCSC)C(=O)O", "note": "[Compound 5] (GNWHGTAPDWSMGLPCIFM-OH; lactam N-9)", "values": [{"measurement": "remaining at 1 h, 25 μg/ml", "setting": "[4]", "value": 63, "unit": "%"}]}, {"compound": "H-VTGRGDSPA-OH [Compound b, H-Val-Thr-Gly-Arg-Gly-Asp-Ser-Pro-Ala-OH]", "values": [{"measurement": "IC50", "setting": "[7]; B16-F10 cells on mouse fibronectin, 37° C. 30 minutes, read-out: concentration for 50% inhibition of the adhesion of the cells (IC50)", "value": 1.13, "unit": "mM"}, {"measurement": "half-life at 25 μg/ml", "setting": "[6]; trypsin (Sigma Co.) in PBS(−) buffer", "value": "< 2", "unit": "h"}, {"measurement": "Percentage of platelet agglutination inhibition (%)", "setting": "[8]; test compound 0.3 mM", "value": 20.3, "unit": "%"}, {"measurement": "Percentage of platelet agglutination inhibition (%)", "setting": "[8]; test compound 1.0 mM", "value": 61.2, "unit": "%"}]}, {"compound": "CSCC[C@H](NC(=O)[C@@H](NC(=O)[C@@H](NC(=O)[C@H](CS)NC(=O)[C@@H]1CCCN1C(=O)[C@H](CC(C)C)NC(=O)CNC(=O)[C@H](CCSC)NC(=O)[C@H](CO)NC(=O)[C@H](Cc1c[nH]c2ccccc12)NC(=O)[C@@H]1CC(=O)NCC(=O)N[C@@H](CC(N)=O)C(=O)N[C@@H](Cc2c[nH]c3ccccc23)C(=O)N[C@@H](Cc2c[nH]cn2)C(=O)NCC(=O)N[C@@H]([C@@H](C)O)C(=O)N[C@@H](C)C(=O)N2CCC[C@H]2C(=O)N1)C(C)C)C(C)C)C(=O)O", "note": "[Compound 3] (GNWHGTAPDWSMGLPCVVM-OH; lactam N-9)", "values": [{"measurement": "remaining at 7 h, 25 μg/ml", "setting": "[4]", "value": "~60", "unit": "%"}]}, {"compound": "flavoridin", "values": [{"measurement": "activity, times higher than the activity of Gly-Arg-Gly-Asp-Ser", "setting": "[1]", "value": "~1000", "unit": "times"}]}, {"compound": "albolarin", "values": [{"measurement": "activity, times higher than the activity of Gly-Arg-Gly-Asp-Ser", "setting": "[1]", "value": "~1000", "unit": "times"}]}, {"compound": "H-VYAVTGRGDSPA-NH2 [c, H-Val-Tyr-Ala-Val-Thr-Gly-Arg-Gly-Asp-Ser-Pro-Ala-NH2]", "values": [{"measurement": "cell adhesion-inhibiting activity (comparison, FIG. 2)", "setting": "[7]; same test, compound (2) versus compound (c)", "value": "almost the same cell adhesion-inhibiting activity"}, {"measurement": "half-life at 25 μg/ml", "setting": "[9]", "value": "< 1", "unit": "h"}]}]}
